Results on 31 molecules are retold here after patent US10654833B2, “ASK1 isoindolin-1-one inhibitors and methods of use thereof” (Hepatikos Therapeutics, LLC, priority 2018, dated 2020).

pIC50: −log10 of the molar value.

Chain of recombinant human ASK1 protein (Q99683 whole entry): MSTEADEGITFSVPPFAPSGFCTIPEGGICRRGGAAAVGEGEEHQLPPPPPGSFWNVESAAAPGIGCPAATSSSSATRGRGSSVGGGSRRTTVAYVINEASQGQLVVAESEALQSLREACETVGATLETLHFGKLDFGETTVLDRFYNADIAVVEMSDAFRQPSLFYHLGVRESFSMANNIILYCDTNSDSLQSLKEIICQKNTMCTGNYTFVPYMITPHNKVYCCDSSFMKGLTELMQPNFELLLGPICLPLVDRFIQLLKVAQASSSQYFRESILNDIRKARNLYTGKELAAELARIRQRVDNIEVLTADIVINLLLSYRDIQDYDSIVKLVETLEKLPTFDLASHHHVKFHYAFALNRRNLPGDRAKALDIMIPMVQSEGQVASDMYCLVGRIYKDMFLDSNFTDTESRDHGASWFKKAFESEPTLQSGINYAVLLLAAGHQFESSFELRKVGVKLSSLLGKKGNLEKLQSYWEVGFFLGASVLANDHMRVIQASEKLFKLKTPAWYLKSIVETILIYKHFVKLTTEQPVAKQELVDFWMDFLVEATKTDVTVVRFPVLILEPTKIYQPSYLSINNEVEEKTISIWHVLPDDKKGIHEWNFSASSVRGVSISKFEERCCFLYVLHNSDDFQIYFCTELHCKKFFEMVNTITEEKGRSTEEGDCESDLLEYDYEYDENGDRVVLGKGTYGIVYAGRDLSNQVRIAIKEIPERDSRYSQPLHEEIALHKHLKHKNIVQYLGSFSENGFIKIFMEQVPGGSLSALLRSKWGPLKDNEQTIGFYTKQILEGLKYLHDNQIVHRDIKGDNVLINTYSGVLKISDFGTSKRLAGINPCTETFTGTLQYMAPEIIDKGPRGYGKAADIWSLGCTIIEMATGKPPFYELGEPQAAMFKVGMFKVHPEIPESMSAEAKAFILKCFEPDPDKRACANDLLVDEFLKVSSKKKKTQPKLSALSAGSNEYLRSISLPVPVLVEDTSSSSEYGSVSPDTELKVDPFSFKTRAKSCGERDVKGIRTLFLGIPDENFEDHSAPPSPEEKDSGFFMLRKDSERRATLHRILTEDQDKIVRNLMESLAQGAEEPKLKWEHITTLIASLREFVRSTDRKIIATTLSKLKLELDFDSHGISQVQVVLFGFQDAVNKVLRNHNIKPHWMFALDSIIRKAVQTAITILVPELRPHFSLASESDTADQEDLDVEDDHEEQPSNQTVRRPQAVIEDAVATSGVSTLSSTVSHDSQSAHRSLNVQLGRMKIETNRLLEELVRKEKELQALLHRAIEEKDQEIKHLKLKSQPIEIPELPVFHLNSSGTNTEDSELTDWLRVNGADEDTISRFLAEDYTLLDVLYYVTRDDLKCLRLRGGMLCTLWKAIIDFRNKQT

This experiment has as its target recombinant human ASK1 protein (Homo sapiens (Human), UniProt Q99683). The experiment in a line: ASK1 kinase activity inhibition assay (radiometric 33P incorporation into MBP). It counts as biochemical. The following applies: Table 3; 20 μM MBP, 10 μM 33P-ATP. The procedure: ASK1 Kinase Activity Inhibition Assay
Inhibition of ASK1 kinase activity was determined radiometrically using 33P substrate incorporation (Reaction Biology Corp., Malvern, Pa.). Briefly, recombinant human ASK1 protein, 20 μM substrate (myelin basic protein (MBP)), and compound (diluted from DMSO stock to give 1% final DMSO) were incubated in Base Reaction buffer (20 mM Hepes (pH 7.5), 10 mM MgCl2, 1 mM EGTA, 0.02% Brij35, 0.02 mg/mL BSA, 0.1 mM Na3VO4, 2 mM DTT, 1% DMSO) at room temperature for 20 minutes. The reaction was initiated by addition of 10 μM 33P-ATP (specific activity […]). The reaction was then allowed to proceed for 2 hours at room temperature. Upon reaction termination, the mixture was spotted on P81 exchange paper and kinase activity by incorporation of 33P into MBP substrate was detected by filter-binding method.
For orientation: pIC50 means −log10 of the IC50, conventionally taken in molar units. “6-(2-(6-(4-Isopropyl-4H-1,2,4-triazol-3-yl)pyridin-2-yl)-3-oxoisoindolin-5-yl)pyridazine-4-carboxylic Acid [Compound 119]”: the pIC50 is 8.28. The same measure for `CC(C)n1cnnc1-c1cccc(N2Cc3ccc(-c4cccc(C(=O)O)c4F)cc3C2=O)n1` [Compound 2, 2-Fluoro-3-(2-(6-(4-isopropyl-4H-1,2,4-triazol-3-yl)pyridin-2-yl)-3-oxoisoindolin-5-yl) Benzoic Acid]: 8.37; for `CC(C)n1cnnc1-c1cccc(N2Cc3ccc(-c4ccc(F)c(C(=O)O)c4)cc3C2=O)n1` [Compound 3, 2-Fluoro-5-(2-(6-(4-isopropyl-4H-1,2,4-triazol-3-yl)pyridin-2-yl)-3-oxoisoindolin-5-yl)benzoic Acid]: 8.31; for `CC(C)n1cnnc1-c1cccc(N2Cc3ccc(-c4cc(F)cc(C(=O)O)c4)cc3C2=O)n1` [Compound 4, 3-Fluoro-5-(2-(6-(4-isopropyl-4H-1,2,4-triazol-3-yl)pyridin-2-yl)-3-oxoisoindolin-5-yl)benzoic Acid]: 8.17. The same measure for `CC(C)n1cnnc1-c1cccc(N2Cc3ccc(-c4cc(C(=O)O)ccc4F)cc3C2=O)n1` [Compound 5, 4-Fluoro-3-(2-(6-(4-isopropyl-4H-1,2,4-triazol-3-yl)pyridin-2-yl)-3-oxoisoindolin-5-yl)benzoic Acid]: 9.52; for `COc1ccc(C(=O)O)cc1-c1ccc2c(c1)C(=O)N(c1cccc(-c3nncn3C(C)C)n1)C2` [Compound 8, 3-(2-(6-(4-Isopropyl-4H-1,2,4-triazol-3-yl)pyridin-2-yl)-3-oxoisoindolin-5-yl)-4-methoxybenzoic Acid]: 7.97. The same measure for `Cc1ccc(-c2ccc3c(c2)C(=O)N(c2cccc(-c4nncn4C(C)C)n2)C3)cc1C(=O)O` [Compound 9, 5-(2-(6-(4-Isopropyl-4H-1,2,4-triazol-3-yl)pyridin-2-yl)-3-oxoisoindolin-5-yl)-2-methylbenzoic acid]: 8.25.

`Cc1ccc(C(=O)O)cc1-c1ccc2c(c1)C(=O)N(c1cccc(-c3nncn3C(C)C)n1)C2` [Compound 11, 3-(2-(6-(4-Isopropyl-4H-1,2,4-triazol-3-yl)pyridin-2-yl)-3-oxoisoindolin-5-yl)-4-methylbenzoic Acid]: the pIC50 was 8.23.

In the case of `CC(C)n1cnnc1-c1cccc(N2Cc3ccc(-c4cc(C#N)cc(C(=O)O)c4)cc3C2=O)n1` [Compound 13, 3-Cyano-5-(2-(6-(4-isopropyl-4H-1,2,4-triazol-3-yl)pyridin-2-yl)-3-oxoisoindolin-5-yl) benzoic Acid], the pIC50 is 8.80.

With `CC(C)n1cnnc1-c1cccc(N2Cc3ccc(-c4cc(C(=O)O)ccc4C#N)cc3C2=O)n1` [Compound 14, 4-Cyano-3-(2-(6-(4-isopropyl-4H-1,2,4-triazol-3-yl)pyridin-2-yl)-3-oxoisoindolin-5-yl) Benzoic Acid], the negative logarithm of the IC50 (pIC50) was 7.81. Then `O=C(O)c1cccc(-c2ccc3c(c2)C(=O)N(c2cccc(-c4nncn4C4CC4)n2)C3)c1` [Compound 20, 3-(2-(6-(4-Cyclopropyl-4H-1,2,4-triazol-3-yl)pyridin-2-yl)-3-oxoisoindolin-5-yl)benzoic Acid], with 8.28. Then `CC(C)n1cnnc1-c1cccc(N2Cc3ccc(N4CCCC(C(=O)O)C4)cc3C2=O)n1` (stereo not shown) [Compound 28, 1-(2-(6-(4-Isopropyl-4H-1,2,4-triazol-3-yl)pyridin-2-yl)-3-oxoisoindolin-5-yl)piperidine-3-carboxylic Acid], with 7.95. Then `CC(C)n1cnnc1-c1cccc(N2Cc3ccc(-c4ccc(CO)c(C(=O)O)c4)cc3C2=O)n1` [Compound 35, 2-(Hydroxymethyl)-5-(2-(6-(4-isopropyl-4H-1,2,4-triazol-3-yl)pyridin-2-yl)-3-oxoisoindolin-5-yl)benzoic Acid], with 8.40; and `CC(C)n1cnnc1-c1cccc(N2Cc3ccc(-c4cccc(-c5nn[nH]n5)c4)cc3C2=O)n1` [Compound 37, 6-(3-(2H-Tetrazol-5-yl)phenyl)-2-(6-(4-isopropyl-4H-1,2,4-triazol-3-yl)pyridin-2-yl)isoindolin-1-one], with 8.55. Consider `CC(C)n1cnnc1-c1cccc(N2Cc3ccc(-c4ccc(C(C)(C)C(=O)O)cc4F)cc3C2=O)n1` [Compound 41, 2-(3-Fluoro-4-(2-(6-(4-isopropyl-4H-1,2,4-triazol-3-yl)pyridin-2-yl)-3-oxoisoindolin-5-yl)phenyl)-2-methylpropanoic Acid], for which the pIC50 was 8.33. Then `CC(C)(C(=O)O)c1ccc(-c2ccc3c(c2)C(=O)N(c2cccc(-c4nncn4C4CC4)n2)C3)cc1` [Compound 53, 2-(4-(2-(6-(4-cyclopropyl-4H-1,2,4-triazol-3-yl)pyridin-2-yl)-3-oxoisoindolin-5-yl)phenyl)-2-methylpropanoic acid], with 8.59; and `CC(C)n1cnnc1-c1cccc(N2Cc3ccc(-c4ccc(C(=O)O)cc4)cc3C2=O)n1` [Compound 55, 4-(2-(6-(4-Isopropyl-4H-1,2,4-triazol-3-yl)pyridin-2-yl)-3-oxoisoindolin-5-yl)benzoic Acid], with 8.27.

Take `CC(C)n1cnnc1-c1cccc(N2Cc3ccc(-c4ccccc4C(=O)O)cc3C2=O)n1` [Compound 56, 2-(2-(6-(4-Isopropyl-4H-1,2,4-triazol-3-yl)pyridin-2-yl)-3-oxoisoindolin-5-yl)benzoic Acid]: the pIC50 is 7.37.

As to `CC(C)n1cnnc1-c1cccc(N2Cc3ccc(-c4ccc(C(=O)O)cc4F)cc3C2=O)n1` [Compound 57, 3-Fluoro-4-(2-(6-(4-isopropyl-4H-1,2,4-triazol-3-yl)pyridin-2-yl)-3-oxoisoindolin-5-yl)benzoic Acid], the pIC50 was 8.24. For `CC(C)n1cnnc1-c1cccc(N2Cc3ccc(-c4ccc(C(=O)O)cc4CO)cc3C2=O)n1` [Compound 58, 3-(Hydroxymethyl)-4-(2-(6-(4-isopropyl-4H-1,2,4-triazol-3-yl)pyridin-2-yl)-3-oxoisoindolin-5-yl)benzoic Acid], the pIC50 was 8.29. The same measure for `CC(C)n1cnnc1-c1cccc(N2Cc3ccc(-c4cc(C(=O)O)ccc4CO)cc3C2=O)n1` [Compound 59, 4-(Hydroxymethyl)-3-(2-(6-(4-isopropyl-4H-1,2,4-triazol-3-yl)pyridin-2-yl)-3-oxoisoindolin-5-yl)benzoic Acid]: 8.28; for `CC(C)n1cnnc1-c1cccc(N2Cc3ccc(-c4ccc(Cl)c(C(=O)O)c4)cc3C2=O)n1` [Compound 60, 2-Chloro-5-(2-(6-(4-isopropyl-4H-1,2,4-triazol-3-yl)pyridin-2-yl)-3-oxoisoindolin-5-yl)benzoic Acid]: 8.30. The same measure for `CC(C)n1cnnc1-c1cccc(N2Cc3ccc(-c4ccc5cc(C(=O)O)[nH]c5c4)cc3C2=O)n1` [Compound 61, 6-(2-(6-(4-Isopropyl-4H-1,2,4-triazol-3-yl)pyridin-2-yl)-3-oxoisoindolin-5-yl)-1H-indole-2-carboxylic Acid]: 8.29; for `CCc1sc(C(=O)O)cc1-c1ccc2c(c1)C(=O)N(c1cccc(-c3nncn3C(C)C)n1)C2` [Compound 62, 5-Ethyl-4-(2-(6-(4-isopropyl-4H-1,2,4-triazol-3-yl)pyridin-2-yl)-3-oxoisoindolin-5-yl)thiophene-2-carboxylic Acid]: 8.17. Consider `CC(C)n1cnnc1-c1cccc(N2Cc3ccc(-c4cncc(C(=O)O)c4)cc3C2=O)n1` [Compound 63, 5-(2-(6-(4-Isopropyl-4H-1,2,4-triazol-3-yl)pyridin-2-yl)-3-oxoisoindolin-5-yl)nicotinic Acid], for which the pIC50 is 8.29. Then `CC(C)n1cnnc1-c1cccc(N2Cc3ccc(-c4ccc(O)c(C(=O)O)c4)cc3C2=O)n1` [Compound 64, 2-Hydroxy-5-(2-(6-(4-isopropyl-4H-1,2,4-triazol-3-yl)pyridin-2-yl)-3-oxoisoindolin-5-yl)benzoic Acid], with 8.15; and `CC(C)n1cnnc1-c1cccc(N2Cc3ccc(-c4ccc(Cl)cc4C(=O)O)cc3C2=O)n1` [Compound 65, 5-Chloro-2-(2-(6-(4-isopropyl-4H-1,2,4-triazol-3-yl)pyridin-2-yl)-3-oxoisoindolin-5-yl)benzoic Acid], with 7.46. Then `COc1cc(N)c(-c2ccc3c(c2)C(=O)N(c2cccc(-c4nncn4C(C)C)n2)C3)cc1C(=O)O` [Compound 66, 4-Amino-5-(2-(6-(4-isopropyl-4H-1,2,4-triazol-3-yl)pyridin-2-yl)-3-oxoisoindolin-5-yl)-2-methoxybenzoic Acid], with 8.05; and `CC(C)n1cnnc1-c1cccc(N2Cc3ccc(-c4ccc(C(=O)O)c(F)c4)cc3C2=O)n1` [Compound 67, 2-Fluoro-4-(2-(6-(4-isopropyl-4H-1,2,4-triazol-3-yl)pyridin-2-yl)-3-oxoisoindolin-5-yl)benzoic Acid], with 8.27; and `Cc1c(C(=O)O)cc(N)cc1-c1ccc2c(c1)C(=O)N(c1cccc(-c3nncn3C(C)C)n1)C2` [Compound 68, 5-Amino-3-(2-(6-(4-isopropyl-4H-1,2,4-triazol-3-yl)pyridin-2-yl)-3-oxoisoindolin-5-yl)-2-methylbenzoic Acid], with 7.91. In the case of `CC(C)n1cnnc1-c1cccc(N2Cc3ccc(-c4ccc(C(=O)O)cc4O)cc3C2=O)n1` [Compound 69, 3-Hydroxy-4-(2-(6-(4-isopropyl-4H-1,2,4-triazol-3-yl)pyridin-2-yl)-3-oxoisoindolin-5-yl)benzoic Acid], the pIC50 is 8.18.
